Laboratory results published in US9890118B2, “Prostamides for the treatment of glaucoma and related diseases” (Allergan, Inc., priority 2004, dated 2018).
Marks after values point to notes of the source that are not given here.

Tested on: dogs (Beagle)
Assay: Intraocular pressure studies by pneumatonometry in conscious dogs
Type: in vivo
Settings: topical 25 μL drop, 0.03% drug in 0.1% polysorbate 80:10 mM TRIS, one eye; for Change in Intraocular Pressure (IOP), 0 hrs: 0 hrs (just before drug administration); for Change in Intraocular Pressure (IOP), 2 hrs: 2 hrs after dosing; for Change in Intraocular Pressure (IOP), 4 hrs: 4 hrs after dosing; for Change in Intraocular Pressure (IOP), 6 hrs: 6 hrs after dosing; for Change in Intraocular Pressure (IOP), 24 hrs: 24 hrs after dosing
Experimental: Intraocular pressure studies were carried out for compounds 1-3 by pneumatonometry in dogs (Beagle) of both sexes (10-15 kg). The animals remained conscious throughout the study and were gently restrained by hand. Drugs were administered topically to one eye as a 25 μL volume drop comprising 0.03% drug, 0.1% polysorbate 80:10 mM TRIS, the other eye received 0.1% polysorbate 80:10 mM TRIS. Proparacaine (0.1%) was used for corneal anesthesia during tonometry. Intraocular pressure was determined just before drug administration and at 2, 4 and 6 hours thereafter on each day of the 5 day study. […] Drug was administered immediately after the first IOP reading.

In the case of `CCCCC[C@H](O)/C=C/[C@@H]1[C@@H](C/C=C\CCCC(=O)NCCc2ccc(O)c(O)c2)[C@@H](O)C[C@H]1O` [Compound 2, (Z)-7-[(1R,2R,3R,5S)-3,5-Dihydroxy-2-((E)-(S)-3-hydroxy-oct-1-enyl)-cyclopentyl]-hept-5-enoic acid [2-(3,4-dihydroxy-phenyl)-ethyl]-amide], the “Change in Intraocular Pressure (IOP), 0 hrs” value (“Change … 0 hrs” for short) is reported as 0, the “Change in Intraocular Pressure (IOP), 2 hrs” value (“Change … 2 hrs” for short) is reported as −3.8* and the “Change in Intraocular Pressure (IOP), 4 hrs” value (“Change … (IOP), 4 hrs” for short) is reported as −3.2**. The “Change in Intraocular Pressure (IOP), 6 hrs” value (from here on “Change … 6 hrs”) was −3.2** and the “Change in Intraocular Pressure (IOP), 24 hrs” value (“Change … 24 hrs” for short) was −1.1*.

For `CCCCC[C@H](O)/C=C/[C@@H]1[C@@H](C/C=C\CCCC(=O)NCCc2c[nH]c3ccc(O)cc23)[C@@H](O)C[C@H]1O` [Compound 3, (Z)-7-[(1R,2R,3R,5S)-3,5-Dihydroxy-2-((E)-(S)-3-hydroxy-oct-1-enyl)-cyclopentyl]-hept-5-enoic acid [2-(5-hydroxy-1H-indol-3-yl)-ethyl]-amide], the “Change … 0 hrs” value was 0, the “Change … 2 hrs” value was −3.2* and the “Change … (IOP), 4 hrs” value was −5.8*. For the same molecule, the “Change … 6 hrs” value was −7.6** and the “Change … 24 hrs” value was −2.2.

In the case of `CCCCC[C@H](O)/C=C/[C@@H]1[C@@H](C/C=C\CCCC(=O)NCCc2ccc(OC(C)=O)c(OC(C)=O)c2)[C@@H](O)C[C@H]1O` [Compound 1, acetic acid 2-acetoxy-5-(2-{(Z)-7-[(1R,2R,3R,5S)-3,5-dihydroxy-2-((E)-(S)-3-hydroxy-oct-1-enyl)-cyclopenyl]-hept-5-enoylamino}-ethyl)-phenyl ester], the “Change … 0 hrs” value is reported as 0, the “Change … 2 hrs” value is reported as −4.4** and the “Change … (IOP), 4 hrs” value is reported as −3.4**. For the same molecule, the “Change … 6 hrs” value was −3.1** and the “Change … 24 hrs” value was −1.4*.
